In patent US11530207B2, “Compounds for the treatment of cancer” (SKYHAWK THERAPEUTICS, INC., priority 2018, dated 2022):
pIC50: −log10 of the molar value.

These compounds were tested on A673 cells (assay: Dose-response cell proliferation assay in A673 cells (crystal violet)). Details: Homo sapiens, A673 cells, 10,000 cells per well, 72 h treatment.
Assay type: cell-based
Procedure: Small molecule splicing modulators were tested in a dose-response assay using A673 cells. A673 cells were first plated in 96-well plastic tissue culture plates (10,000 cells per well). The cells were treated with vehicle alone (DMSO), or increasing concentrations of SMSM compounds for 72 h. Following treatment, cell proliferation was determined using a crystal violet assay. The relative cell proliferation at each concentration was determined.

CN(c1ccc(-c2ccc(/C=C/c3nnn[nH]3)cc2O)nn1)[C@H]1C[C@]2(C)CC[C@](C)(C1)N2 [SMSM 12, 5-((E)-2-(1H-tetrazol-5-yl)vinyl)-2-(6-(((1R,3s,5S)-1,5-dimethyl-8-azabicyclo[3.2.1]octan-3-yl)(methyl)amino)pyridazin-3-yl)phenol] and CNC(=O)/C=C/c1ccc(-c2ccc(N(C)[C@H]3C[C@]4(C)CC[C@](C)(C3)N4)nn2)c(O)c1 [SMSM 10, (E)-3-(4-(6-(((1R,3s,5S)-1,5-dimethyl-8-azabicyclo[3.2.1]octan-3-yl)(methyl)amino)pyridazin-3-yl)-3-hydroxyphenyl)-N-methylacrylamide] cannot be ordered by pIC50: under 6.00 for the first, 5.80 for the second.

Compared with CNC(=O)/C=C/c1cc(O)c(-c2ccc(N3CCC(N)CC3)nn2)cc1F [SMSM 17, (E)-3-(4-(6-(4-aminopiperidin-1-yl)pyridazin-3-yl)-2-fluoro-5-hydroxyphenyl)-N-methylacrylamide], CNC(=O)/C=C/c1ccc(-c2ccc(N3CCC(N)CC3)nn2)c(O)c1 [SMSM 18, (E)-3-(4-(6-(4-aminopiperidin-1-yl)pyridazin-3-yl)-3-hydroxyphenyl)-N-methylacrylamide] is lower in pIC50: 9.52 for the first, under 6.00 for the second. The first is the more potent here.

Going from CNC(=O)/C=C/c1ccc(-c2ccc(N(C)[C@@H]3C[C@H]4CCC[C@@H](C3)N4)nn2)c(O)c1 [SMSM 6, (E)-3-(4-(6-(((1R,3s,5S)-9-azabicyclo[3.3.1]nonan-3-yl)(methyl)amino)pyridazin-3-yl)-3-hydroxyphenyl)-N-methylacrylamide] to CNC(=O)/C=C/c1ccc(-c2ccc(N(C)[C@@H]3C[C@H]4CC[C@@H](C3)N4)nn2)c(O)c1 [SMSM 3, (E)-3-(4-(6-(((1R,3s,5S)-8-azabicyclo[3.2.1]octan-3-yl)(methyl)amino)pyridazin-3-yl)-3-hydroxyphenyl)-N-methylacrylamide], the pIC50 rises from 5.51 to 8.08 (2.57 log units).

CNC(=O)/C=C/c1cc(O)c(-c2ccc(N(C3CC3)[C@H]3C[C@]4(C)CCC[C@](C)(C3)N4)nn2)cc1F [SMSM 13, (E)-3-(4-(6-(cyclopropyl((lR,3s,5 S)-1,5-dimethyl-9-azabicyclo[3.3.1]nonan-3-yl)amino)pyridazin-3-yl)-2-fluoro-5-hydroxyphenyl)-N-methylacrylamide] and CNC(=O)/C=C/c1cc(O)c(-c2ccc(N(C3CC3)[C@H]3C[C@]4(C)CC[C@](C)(C3)N4)nn2)cc1F [SMSM 11, (E)-3-(4-(6-(cyclopropyl((1R,3s,5 S)-1,5-dimethyl-8-azabicyclo[3.2.1]octan-3-yl)amino)pyridazin-3-yl)-2-fluoro-5-hydroxyphenyl)-N-methylacrylamide] cannot be ordered by pIC50: under 6.00 for the first, 5.86 for the second.

First: CNC(=O)/C=C/c1cc(O)c(-c2ccc(N(C)[C@H]3C[C@]4(C)CC[C@](C)(C3)N4)nn2)cc1F [SMSM 9]
Second: CNC(=O)/C=C/c1cc(O)c(-c2ccc(N(C)[C@H]3C[C@]4(C)CCC[C@](C)(C3)N4)nn2)cc1F [SMSM 15, (E)-3-(4-(6-(((1R,3s,5S)-1,5-dimethyl-9-azabicyclo[3.3.1]nonan-3-yl)(methyl)amino)pyridazin-3-yl)-2-fluoro-5-hydroxyphenyl)-N-methylacrylamide]
The pIC50 of the first is 3.44 log units lower: 5.71 for the first, 9.15 for the second.

CNC(=O)/C=C/c1ccc(-c2ccc(O[C@@H]3C[C@@H]4C[C@H]3CN4)nn2)c(O)c1 [SMSM 22, (E)-3-(4-(6-(((1S,4S,5R)-2-azabicyclo[2.2.1]heptan-5-yl)oxy)pyridazin-3-yl)-3-hydroxyphenyl)-N-methylacrylamide] and CNC(=O)/C=C/c1ccc(-c2ccc(O[C@H]3C[C@H]4C[C@@H]3CN4)nn2)c(O)c1 [SMSM 21] are within 0.2 log units of each other in pIC50: 6.48 for the first, 6.43 for the second.

First: CNC(=O)/C=C/c1ccc(-c2ccc(N3C[C@H]4CNC[C@H]4C3)nn2)c(O)c1 [SMSM 2, (E)-3-(4-(6-((3aR,6aS)-hexahydropyrrolo[3,4-c]pyrrol-2(1H)-yl)pyridazin-3-yl)-3-hydroxyphenyl)-N-methylacrylamide]
Second: CNC(=O)/C=C/c1cc(O)c(-c2ccc(N3C[C@H]4CNC[C@H]4C3)nn2)cc1F [SMSM 1, (E)-3-(2-fluoro-4-(6-((3aR,6aS)-hexahydropyrrolo[3,4-c]pyrrol-2(1H)-yl)pyridazin-3-yl)-5-hydroxyphenyl)-N-methylacrylamide]
The pIC50 of the first is 1.01 log units higher: 8.05 for the first, 7.04 for the second.

Compared with CNC(=O)/C=C/c1ccc(-c2ccc(O[C@@H]3C[C@H]4CC[C@@H](C3)N4)nn2)c(O)c1 [SMSM 4, (E)-3-(4-(6-(((1R,3s,5S)-8-azabicyclo[3.2.1]octan-3-yl)oxy)pyridazin-3-yl)-3-hydroxyphenyl)-N-methylacrylamide], CNC(=O)/C=C/c1ccc(-c2ccc(O[C@@H]3C[C@H]4CCC[C@@H](C3)N4)nn2)c(O)c1 [SMSM 20, (E)-3-(4-(6-(((1R,3s,5S)-9-azabicyclo[3.3.1]nonan-3-yl)ypoxy)pyridazin-3-yl)-3-hydroxyphenyl)-N-methylacrylamide] is 2.05 log units lower in pIC50: 8.15 for the first, 6.10 for the second.

First: CN(C(=O)/C=C/c1ccc(-c2ccc(N(C)[C@@H]3C[C@H]4CCC[C@@H](C3)N4)nn2)c(O)c1)C1CC1 [SMSM 5, (E)-3-(4-(6-(((1R,3s,5S)-9-azabicyclo[3.3.1]nonan-3-yl)(methyl)amino)pyridazin-3-yl)-3-hydroxyphenyl)-N-cyclopropyl-N-methylacrylamide]
Second: CN(C)C(=O)/C=C/c1ccc(-c2ccc(N(C)[C@@H]3C[C@H]4CCC[C@@H](C3)N4)nn2)c(O)c1 [SMSM 7, (E)-3-(4-(6-(((1R,3s,5S)-9-azabicyclo[3.3.1]nonan-3-yl)(methyl)amino)pyridazin-3-yl)-3-hydroxyphenyl)-N,N-dimethylacrylamide]
The pIC50 of the first is 2.17 log units lower: 6.26 for the first, 8.43 for the second. The second is the more potent here.

Compared with CNC(=O)/C=C/c1ccc(-c2ccc(N(C)[C@H]3C[C@]4(C)CCC[C@](C)(C3)N4)nn2)c(O)c1 [SMSM 14, (E)-3-(4-(6-(((1R,3s,5S)-1,5-dimethyl-9-azabicyclo[3.3.1]nonan-3-yl)(methyl)amino)pyridazin-3-yl)-3-hydroxyphenyl)-N-methylacrylamide], CNC(=O)/C=C/c1ccc(-c2ccc(N(C)C3CC(C)(C)NC(C)(C)C3)nn2)c(O)c1 [SMSM 16, (E)-3-(3-hydroxy-4-(6-(methyl(2,2,6,6-tetramethylpiperidin-4-yl)amino)pyridazin-3-yl)phenyl)-N-methylacrylamide] is 0.90 log units higher in pIC50: 8.80 for the first, 9.70 for the second.

Compared with CN(C)C(=O)/C=C/c1ccc(-c2ccc(O[C@@H]3C[C@H]4CCC[C@@H](C3)N4)nn2)c(O)c1 [SMSM 19], CNC(=O)/C=C/c1ccc(-c2ccc(S[C@@H]3C[C@H]4CC[C@@H](C3)N4)nn2)c(O)c1 [SMSM 23, (E)-3-(4-(6-(((1R,3s,5S)-8-azabicyclo[3.2.1]octan-3-yl)thio)pyridazin-3-yl)-3-hydroxyphenyl)-N-methylacrylamide] is higher in pIC50: under 6.00 for the first, 6.70 for the second.

With CNC(=O)/C=C/c1cc(O)c(-c2ccc(N(C)[C@@H]3C[C@H]4CCC[C@@H](C3)N4)nn2)cc1F [SMSM 8, (E)-3-(4-(6-(((1R,3s,5S)-9-azabicyclo[3.3.1]nonan-3-yl)(methyl)amino)pyridazin-3-yl)-2-fluoro-5-hydroxyphenyl)-N-methylacrylamide] the pIC50 was 7.70.
